# Read-outs that look alike come from different tables or passages of the source.
# Tests used:
# [1] = test system: Corynebacterium xerosis (JCM 1971); assay: Antimicrobial test, growth inhibition minimum concentration; type: cell-based; conditions: C. xerosis(JCM1971)
# Procedure: (§1) 0.5 mL of a previously sterilized medium (brand name: Brain Heart Infusion Liquid Medium supplied by Nihon Pharmaceutical Co., Ltd.) was added into a 96-well deep type microplate, and 0.5 mL of ricinoleic acid monoglyceride or diglycerine ricinoleic acid monoester of the present invention (synthesized in “1. Synthesis Example of ricinoleic acid monoglyceride” and “2. Synthesis Example of diglycerine ricinoleic acid monoester,” respectively) was added thereto and serially prepared so that the final concentration in the medium was 3 ppm, 6 ppm, 12 ppm, 25 ppm, 50 ppm, 100 ppm, 200 ppm and 400 ppm. 0.1 mL of each cultured bacterial medium of Corynebacterium xerosis (JCM 1971) or Staphylococcus aureus (JCM 2151) at approximately 1×10^8CFU/mL was added to this sample solution, stirred, and then cultured at 37° C. under an aerobic condition for 24 hours. The antimicrobial effect was visually determined, and compared with test plots in which the microorganism had not been added. The test plot in which no turbidity due to growth of the microorganism was observed was determined as the test plot having the antimicrobial effect, and the lowest concentration required for inhibiting the growth of the microorganism (hereinafter referred to as a “growth inhibition minimum concentration”) was measured. As a Comparative Example, the growth inhibition minimum concentration of 4-isopropyl-3-methylphenol known as the antimicrobial agent having a broad antimicrobial spectrum was measured in the same way as in the above. The growth inhibition minimum concentrations of ricinoleic acid monoglyceride and diglycerine ricinoleic acid monoester of the present invention (synthesized in “1. Synthesis Example of ricinoleic acid monoglyceride” and “2. Synthesis Example of diglycerine ricinoleic acid monoester,” respectively) for the 9 indicator bacterial species shown in Table 2 were measured in the same way as in “3. Antimicrobial test” described above.
# [2] = test system: Staphylococcus aureus (JCM 2151); assay: as above; type: cell-based; conditions: S. aureus(JCM2151); for MIC: Staphylococcus aureus, read-out: minimum inhibitory concentration
# Procedure: as §1
# [3] = test system: Propionibacterium acnes (JCM 6425); assay: Antimicrobial test, growth inhibition minimum concentration (anaerobic); type: cell-based; conditions: Table 1, P. acnes(JCM6425), 37° C., 48 hours
# Procedure: 0.5 mL of the previously sterilized medium (brand name: Brain Heart Infusion Liquid Medium supplied by Nihon Pharmaceutical Co., Ltd.) was added to a 96-well deep type microplate, and 0.5 mL of ricinoleic acid monoglyceride or diglycerine ricinoleic acid monoester of the present invention (synthesized in “1. Synthesis Example of ricinoleic acid monoglyceride” and “2. Synthesis Example of diglycerine ricinoleic acid monoester,” respectively) was added thereto and serially prepared so that the final concentration in the medium was 3 ppm, 6 ppm, 12 ppm, 25 ppm, 50 ppm, 100 ppm, 200 ppm and 400 ppm. 0.1 mL of a cultured bacterial medium of Propionibacterium acnes (JCM 6425) at approximately 1×10^8CFU/mL was added to this sample solution, and cultured at 37° C. under an anaerobic condition using a deoxidizer for 48 hours. The antimicrobial effect was visually determined, and the growth inhibition minimum concentration was measured. As a Comparative Example, the growth inhibition minimum concentration of 4-isopropyl-3-methylphenol known as the antimicrobial agent having a broad antimicrobial spectrum was measured in the same way as in the above.
# S. mutans(JCM5175) = assay: Antimicrobial test, growth inhibition minimum concentration; type: cell-based, Streptococcus mutans; conditions: for minimum inhibitory concentration: Table 2
# Procedure: as §1
# P. gingivalis(JCM8525) = assay: as above; type: cell-based, Porphyromonas gingivalis; conditions: Table 2
# Procedure: as §1
# S. epidermidis(JCM2414) = assay: as above; type: cell-based, Staphylococcus epidemidis; conditions: for minimum inhibitory concentration: Table 2
# Procedure: as §1
# B. subtile(JCM2151) = assay: as above; type: cell-based, Bacillus subtilis; conditions: Table 2
# Procedure: as §1
# B. cereus(JCM2152) = assay: as above; type: cell-based, Bacillus cereus; conditions: for minimum inhibitory concentration: Table 2
# Procedure: as §1
# [4] = test system: L. monocytogenes(JCM7671); assay: as above; type: cell-based, Listeria monocytogenes; conditions: for minimum inhibitory concentration: Table 2
# Procedure: as §1
# E. coli(JCM1649) = assay: as above; type: cell-based, Escherichia coli; conditions: for antimicrobial activity against Escherichia coli: statement in words from Table 2
# Procedure: as §1
# [5] = test system: Staphylococcus aureus (JCM 2151); assay: Microbicidal test for Staphylococcus aureus; type: cell-based; conditions: FIG. 1; for retention time for reducing the number of bacteria to 1/1000 or less: 200 ppm sample in 0.2 M phosphate buffer (pH7.0), aerobic
# Procedure: Ricinoleic acid monoglyceride synthesized in “1. Synthesis Example of ricinoleic acid monoglyceride” was added to a 0.2 M phosphate buffer (pH7.0) to prepare a 200 ppm sample. 0.1 mL of Staphylococcus aureus (JCM 2151) at approximately 1×10^8CFU/mL was added to 5 mL of the sample. While being kept under the aerobic condition, the bacterial sample was taken at 0, 5, 10, 30, 60 and 120 minutes after the addition, and the number of survival bacteria in the sample was counted at each retention time. Specifically, using a Brain Heart Infusion agar medium, the sample was serially diluted, cultured using a flat plate smear method at 37° C. for 48 hours, and then the number of bacteria was counted. As a comparative control, 4-isopropyl-3-methylphenol was simultaneously evaluated in the same way as in the above.
# [6] = test system: Propionibacterium acnes (JCM 6425); assay: Microbicidal test for Propionibacterium acnes; type: cell-based; conditions: FIG. 2; for retention time for reducing the number of bacteria to 1/100 or less: 200 ppm sample in 0.2 M phosphate buffer (pH7.0), anaerobic
# Procedure: Ricinoleic acid monoglyceride synthesized in “1. Synthesis Example of ricinoleic acid monoglyceride” was added to a 0.2 M phosphate buffer (pH7.0) to prepare a 200 ppm sample. 0.1 mL of Propionibacterium acnes (JCM 6425) at approximately 1×10^8CFU/mL was added to 5 mL of the sample. While being kept under the anaerobic condition, the bacterial sample was taken at 0, 5, 10, 30, 60 and 120 minutes after the addition, and the number of survival bacteria in the sample was counted at each retention time. Specifically, using a GAM agar medium, the sample was serially diluted, cultured using the flat plate smear method at 37° C. under the anaerobic condition for 4 days, and then the number of bacteria was counted. As the comparative control, 4-isopropyl-3-methylphenol was simultaneously evaluated in the same way as in the above.
# [7] = Compounding property in external preparations for skin; type: physicochemical
# Procedure: Hyaluronic acid, ethanol, glycerine and ricinoleic acid monoglyceride were mixed, and then purified water was added to obtain a skin lotion.
# Squalane, jojoba oil, bees wax and sorbitan sesquioleate were mixed, heated to 70° C. and dissolved (this was a mixture A). On the other hand, xanthan gum, 1,3-butylene glycol, ethanol and ricinoleic acid monoglyceride were mixed at room temperature (this was a mixture B). Subsequently, the mixture A and the mixture B were mixed, heated to 60° C., and added little by little to the purified water in which the N-palm oil fatty acid acyl L-arginine ethyl-DL-pyrrolidone carboxylate salt had been added, and vigorously stirring to emulsify to obtain a milky lotion.
# Squalane, stearic acid, bees wax, stearyl alcohol and ricinoleic acid monoglyceride were mixed, heated to 70° C. and dissolved. The N-palm oil fatty acid acyl L-arginine ethyl-DL-pyrrolidone carboxylate salt and the purified water were added little by little to these heated and dissolved oil-based ingredients, and these were stirred well to obtain a cream.
# [8] = Table 1, 37° C., aerobic, 24 hours
SMILES,minimum inhibitory concentration ([1]; Table 2),minimum inhibitory concentration ([2]; Table 2),minimum inhibitory concentration (S. mutans(JCM5175)),minimum inhibitory concentration (P. gingivalis(JCM8525)),minimum inhibitory concentration (S. epidermidis(JCM2414)),minimum inhibitory concentration (B. subtile(JCM2151)),minimum inhibitory concentration (B. cereus(JCM2152)),minimum inhibitory concentration [4],"minimum inhibitory concentration (E. coli(JCM1649); Table 2, E. coli(JCM1649))",also measured
CCCCCC[C@@H](O)C/C=C\CCCCCCCC(=O)OCC(O)CO (stereo partly drawn) [ricinoleic acid monoglyceride],25 ppm,25 ppm,25 ppm,6 ppm,25 ppm,25 ppm,12.5 ppm,25 ppm,>400 ppm,"minimum inhibitory concentration [1, 8]: 25 ppm; minimum inhibitory concentration [2, 8]: 25 ppm; minimum inhibitory concentration [3]: 50 ppm; antimicrobial activity against Escherichia coli (E. coli(JCM1649)): did not exhibit antimicrobial activity; retention time for reducing the number of bacteria to 1/1000 or less [5]: ≤ 10 min; retention time for reducing the number of bacteria to 1/100 or less [6]: ≤ 5 min; compounding property: mixing with the other ingredients ([7]; cream, 2.0% by weight): mixed very well; blending property: mixing with the other ingredients ([7]; milky lotion, 1.0% by weight): immediately mixed; compounding property: mixing with the other ingredients ([7]; skin lotion, 0.5% by weight): easily mixed"
CCCCCCCCCCCCCC(=O)OCC(O)CO (stereo not drawn) [myristic acid monoglyceride],400 ppm,400 ppm,100 ppm,50 ppm,>400 ppm,>400 ppm,400 ppm,200 ppm,>400 ppm,–
CCCCCCCCCCCC(=O)OCC(O)CO (stereo not drawn) [lauric acid monoglyceride],100 ppm,50 ppm,25 ppm,13 ppm,25 ppm,25 ppm,25 ppm,25 ppm,>400 ppm,–
CCCCCCCCCCCCCC(=O)OCC(O)COCC(O)CO (stereo not drawn) [diglycerin myristic acid monoester],100 ppm,50 ppm,50 ppm,–,>400 ppm,25 ppm,–,–,>400 ppm,–
"CCCCCCC(O)CC=CCCCCCCCC(=O)OCC(O)COCC(O)CO (stereo not drawn) [diglycerin ricinoleic acid monoester, diglycerine ricinoleic acid monoester]",25 ppm,50 ppm,50 ppm,–,50 ppm,50 ppm,50 ppm,50 ppm,>400 ppm,"minimum inhibitory concentration [1, 8]: 50 ppm; minimum inhibitory concentration [2, 8]: 50 ppm; minimum inhibitory concentration [3]: 100 ppm; antimicrobial activity against Escherichia coli (E. coli(JCM1649)): did not exhibit antimicrobial activity"
CCCCCCCCCCCC(=O)OCC(O)COCC(O)CO (stereo not drawn) [diglycerin lauric acid monoester],200 ppm,50 ppm,50 ppm,–,100 ppm,100 ppm,100 ppm,200 ppm,>400 ppm,–
"Cc1cc(O)ccc1C(C)C [4-isopropyl-3-methyl phenol, 4-isopropyl-3-methylphenol]",–,–,–,–,–,–,–,–,–,"MIC ([1]; Corynebacterium xerosis, Table 1, 37° C., aerobic, 24 hours, read-out: minimum inhibitory concentration): 200 µg/mL; MIC [2, 8]: 200 µg/mL; MIC ([2]; Table 2): 200 µg/mL; MIC ([3]; Cutibacterium acnes, read-out: minimum inhibitory concentration): 200 µg/mL; MIC (S. mutans(JCM5175); Streptococcus mutans, Table 2, read-out: minimum inhibitory concentration): 200 µg/mL; MIC (S. epidermidis(JCM2414); Staphylococcus epidermidis, Table 2, read-out: minimum inhibitory concentration): 200 µg/mL; MIC (B. cereus(JCM2152); Bacillus cereus, Table 2, read-out: minimum inhibitory concentration): 200 µg/mL; MIC ([4]; Listeria monocytogenes, Table 2, read-out: minimum inhibitory concentration): 200 µg/mL; MIC (E. coli(JCM1649); Escherichia coli, Table 2, E. coli(JCM1649), read-out: minimum inhibitory concentration): 400 µg/mL; retention time for reducing the number of bacteria to 1/1000 or less [5]: 30 min; microbicidal action for 10 minutes ([5]; 200 ppm, retention time 10 minutes): weak; retention time for reducing the number of bacteria to 1/100 or less [6]: 10 min; microbicidal action for 5 minutes ([6]; 200 ppm, retention time 5 minutes): weak"

# Reference: US20100221197A1, “ANTIMICROBIAL AGENT AND EXTERNAL PREPARATION FOR SKIN CONTAINING THE SAME” (TAIYO CORPORATION, priority 2007, published 2010)
